Data: the supplement of paper PMC11061612

Columns and labels:
Test in all cases: combination Emax (second highest fraction inhibited in the dose matrix, 72 h); higher = more inhibition; extreme values may be limits of the assay
[1] = tested on: A172 (Glioblastoma)
Outline: (§1)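 Cell lines grown in DMEM/F12 or RPMI with 10% FBS were plated in 1536-well plates and held 24 hours at 37°C, 5% CO2 before 72 hours of exposure to two-drug dose matrices, with DMSO typically at 0.2%. CellTiter-Glo 2.0 luminescence gave viability, which was converted to inhibition. Vehicle wells were set to 0 and blank wells to 1. Combination Emax is the second-highest inhibition in the matrix, and Bliss excess is the observed combination effect minus the expected EA + EB − EA·EB, where EA and EB are the single-agent effects.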

[2] = tested on: CAL-39 (Other Solid Carcinomas)
Outline: as §1

[3] = tested on: DOK (Oral Cavity Carcinoma)
Outline: as §1

[4] = tested on: EW-22 (Ewing's Sarcoma)
Outline: as §1

[5] = tested on: HCC-827 (Lung Adenocarcinoma)
Outline: as §1

[6] = tested on: HCC38 (Breast Carcinoma)
Outline: as §1

[7] = tested on: HuO9 (Osteosarcoma)
Outline: as §1

[8] = tested on: JHH-6 (Hepatocellular Carcinoma)
Outline: as §1

[9] = tested on: KG-1 (Acute Myeloid Leukemia)
Outline: as §1

[10] = tested on: MCF7 (Breast Carcinoma)
Outline: as §1

[11] = tested on: MES-SA (Other Solid Carcinomas)
Outline: as §1

[12] = tested on: MSTO-211H (Mesothelioma)
Outline: as §1

[13] = tested on: NOMO-1 (Acute Myeloid Leukemia)
Outline: as §1

[14] = tested on: P31-FUJ (Acute Myeloid Leukemia)
Outline: as §1

[15] = tested on: SK-MEL-1 (Melanoma)
Outline: as §1

[16] = tested on: SK-UT-1 (Other Solid Carcinomas)
Outline: as §1

[17] = tested on: SNU-61 (Colorectal Carcinoma)
Outline: as §1

[18] = tested on: SW48 (Colorectal Carcinoma)
Outline: as §1

[19] = tested on: SW948 (Colorectal Carcinoma)
Outline: as §1

[20] = tested on: TYK-nu (Ovarian Carcinoma)
Outline: as §1

SMILES | combination Emax [1] | combination Emax [2] | combination Emax [3] | combination Emax [4] | combination Emax [5] | combination Emax [6] | combination Emax [7] | combination Emax [8] | combination Emax [9] | combination Emax [10] | combination Emax [11] | combination Emax [12] | combination Emax [13] | combination Emax [14] | combination Emax [15] | combination Emax [16] | combination Emax [17] | combination Emax [18] | combination Emax [19] | combination Emax [20]
Cc1c2c(nn1C)CSCc1cc(n(C)n1)CSc1cc(c3ccccc3c1)OCCCc1c(C(=O)O)n(C)c3c-2c(Cl)ccc13 [AZD5991] + Cc1cc2ncnn2cc1Nc1ncc2c(n1)n(C1CCOCC1)c(=O)n2C [AZD7648] (first compound max 1 µM, 7x7, partner max 10 µM) | 0.322 | 0.58 | 0.421 | 0.504 | 0.288 | 0.335 | 1 | 0.219 | 1 | 0.665 | 0.221 | 0.194 | 0.865 | 0.965 | 0.303 | 0.282 | 0.19 | 0.33 | 0.436 | 0.412
Cc1c2c(nn1C)CSCc1cc(n(C)n1)CSc1cc(c3ccccc3c1)OCCCc1c(C(=O)O)n(C)c3c-2c(Cl)ccc13 [AZD5991] + Cn1cnc2c(F)c(Nc3ccc(Br)cc3Cl)c(C(=O)NOCCO)cc21 [Selumetinib] (first compound max 1 µM, 7x7, partner max 3 µM) | 0.316 | 0.874 | 0.903 | 0.566 | 0.201 | 0.33 | 1 | 0.253 | 1 | 0.559 | 0.23 | 0.264 | 1 | 0.998 | 0.912 | 0.164 | 0.464 | 0.565 | 0.69 | 0.513
Cc1cc2ncnn2cc1Nc1ncc2c(n1)n(C1CCOCC1)c(=O)n2C [AZD7648] + C=CCn1c(=O)c2cnc(Nc3ccc(N4CCN(C)CC4)cc3)nc2n1-c1cccc(C(C)(C)O)n1 [AZD1775] (first compound max 10 µM, partner max 1 µM) | 0.617 | 0.462 | 0.482 | 0.602 | 0.497 | 0.531 | 0.724 | 0.311 | 0.452 | 0.552 | 0.75 | 0.612 | 0.961 | 0.987 | 0.399 | 0.657 | 0.401 | 0.45 | 0.83 | 0.695
Cc1cc2ncnn2cc1Nc1ncc2c(n1)n(C1CCOCC1)c(=O)n2C [AZD7648] + CCN(CCO)CCCOc1ccc2c(Nc3cc(CC(=O)Nc4cccc(F)c4)[nH]n3)ncnc2c1 [AZD2811] (first compound max 10 µM, 7x7, partner max 1 µM) | 0.611 | 0.433 | 0.47 | 0.698 | 0.24 | 0.287 | 0.369 | 0.339 | 0.386 | 0.55 | 0.57 | 0.469 | 0.606 | 0.957 | 0.3 | 0.341 | 0.254 | 0.963 | 0.737 | 0.422
Cc1cc2ncnn2cc1Nc1ncc2c(n1)n(C1CCOCC1)c(=O)n2C [AZD7648] + CN(C)CCCOc1ccc(-c2ccc3ncc4c(c3c2)n(C2CCOCC2)c(=O)n4C)cn1 [AZD0156] (first compound max 10 µM, 7x7, partner max 1 µM) | 0.319 | 0.322 | 0.249 | 0.467 | 0.297 | 0.233 | 0.369 | 0.279 | 0.323 | 0.373 | 0.475 | 0.33 | 0.461 | 0.566 | 0.347 | 0.214 | 0.172 | 0.329 | 0.545 | 0.431
Cc1cc2ncnn2cc1Nc1ncc2c(n1)n(C1CCOCC1)c(=O)n2C [AZD7648] + C[C@@H]1COCCN1C2=NC(=NC(=C2)C3(CC3)[S@](=N)(=O)C)C4=C5C=CNC5=NC=C4 [AZD6738] (first compound max 10 µM, 7x7, partner max 10 µM) | 0.687 | 0.485 | 0.453 | 0.851 | 0.5 | 0.565 | 0.756 | 0.333 | 0.67 | 0.755 | 0.632 | 0.681 | 0.961 | 0.967 | 0.293 | 0.757 | 0.326 | 0.681 | 0.578 | 0.695
NC1(C(=O)N[C@@H](CCO)c2ccc(Cl)cc2)CCN(c2ncnc3[nH]ccc23)CC1 [Capivasertib] + CC(=O)c1c(C)c2cnc(Nc3ccc(N4CCNCC4)cn3)nc2n(C2CCCC2)c1=O [Palbociclib] (first compound max 10 µM, 7x7, partner max 10 µM) | 0.671 | 0.672 | 0.596 | 0.575 | 0.344 | 0.209 | 0.541 | 0.501 | 0.398 | 0.676 | 0.607 | 0.261 | 0.517 | 0.571 | 0.141 | 0.458 | 0.168 | 0.63 | 0.57 | 0.505
NC1(C(=O)N[C@@H](CCO)c2ccc(Cl)cc2)CCN(c2ncnc3[nH]ccc23)CC1 [Capivasertib] + CC(C)n1c(=O)n(C)c2cnc3cc(F)c(-c4ccc(OCCCN5CCCCC5)nc4)cc3c21 [AZD1390] (first compound max 10 µM, 7x7, partner max 0.3 µM) | 0.226 | 0.457 | 0.5 | 0.437 | 0.322 | 0.352 | 0.509 | 0.309 | 0.241 | 0.459 | 0.469 | 0.213 | 0.429 | 0.645 | 0.226 | 0.354 | 0.146 | 0.497 | 0.575 | 0.309
NC1(C(=O)N[C@@H](CCO)c2ccc(Cl)cc2)CCN(c2ncnc3[nH]ccc23)CC1 [Capivasertib] + CCN(CCO)CCCOc1ccc2c(Nc3cc(CC(=O)Nc4cccc(F)c4)[nH]n3)ncnc2c1 [AZD2811] (first compound max 10 µM, 7x7, partner max 1 µM) | 0.52 | 0.55 | 0.592 | 0.78 | 0.35 | 0.359 | 0.464 | 0.4 | 0.458 | 0.639 | 0.756 | 0.379 | 0.735 | 0.952 | 0.292 | 0.522 | 0.242 | 0.983 | 0.769 | 0.357
NC1(C(=O)N[C@@H](CCO)c2ccc(Cl)cc2)CCN(c2ncnc3[nH]ccc23)CC1 [Capivasertib] + COc1nnc2ccc(N3CCC(c4ccc(OCCN5CCN(C)C(=O)[C@H]5C)cc4)CC3)nn12 [AZD5153] (first compound max 10 µM, 7x7, partner max 1 µM) | 0.472 | 0.787 | 0.768 | 0.834 | 0.481 | 0.461 | 0.841 | 0.645 | 0.852 | 0.754 | 0.621 | 0.258 | 1 | 1 | 0.681 | 0.658 | 0.303 | 0.828 | 0.699 | 0.632
NC1(C(=O)N[C@@H](CCO)c2ccc(Cl)cc2)CCN(c2ncnc3[nH]ccc23)CC1 [Capivasertib] + C[C@@H]1COCCN1C2=NC(=NC(=C2)C3(CC3)[S@](=N)(=O)C)C4=C5C=CNC5=NC=C4 [AZD6738] (first compound max 10 µM, 7x7, partner max 10 µM) | 0.779 | 0.653 | 0.601 | 0.908 | 0.576 | 0.621 | 0.79 | 0.506 | 0.739 | 0.731 | 0.721 | 0.304 | 0.968 | 0.971 | 0.296 | 0.829 | 0.309 | 0.759 | 0.675 | 0.728
NC1(C(=O)N[C@@H](CCO)c2ccc(Cl)cc2)CCN(c2ncnc3[nH]ccc23)CC1 [Capivasertib] + Cn1cnc2c(F)c(Nc3ccc(Br)cc3Cl)c(C(=O)NOCCO)cc21 [Selumetinib] (first compound max 10 µM, 7x7, partner max 10 µM) | 0.48 | 0.762 | 0.931 | 0.543 | 0.6 | 0.29 | 0.509 | 0.458 | 0.37 | 0.519 | 0.496 | 0.379 | 0.948 | 0.931 | 0.874 | 0.447 | 0.46 | 0.556 | 0.829 | 0.667
Cc1nc(Nc2ncc(C(=O)Nc3c(C)cccc3Cl)s2)cc(N2CCN(CCO)CC2)n1 [Dasatinib] + CC(=O)Nc1cccc(-n2c(=O)n(C3CC3)c(=O)c3c(Nc4ccc(I)cc4F)n(C)c(=O)c(C)c32)c1 [Trametinib] (first compound max 2 µM, 7x7, partner max 1 µM) | 0.512 | 0.944 | 0.904 | 0.0877 | 0.947 | 0.285 | 0.541 | 0.611 | 0.419 | 0.112 | 0.221 | 0.747 | 0.861 | 0.65 | 0.854 | 0.344 | 0.626 | 0.959 | 0.764 | 0.71
